After the bases stand the sugars from the 5' end (letter, count) and the backbone: PS all phosphorothioate, else s phosphorothioate and o phosphodiester by linkage. Methylation of C is not given here. e = 2'-O-(2-methoxyethyl) (MOE); k = constrained ethyl (cEt); d = 2'-deoxy (DNA); m = 2'-O-methyl
Target: HSD17B13
Conditions: ASO, HepaRG

Sequence	target mRNA inhibition (1 µM) [%]	also measured
GATGATGTTCATGGCT (sugars k3 d10 k3, PS)	86	target mRNA inhibition (0.02 µM): 3%; target mRNA inhibition (0.078 µM): 17%; target mRNA inhibition (0.313 µM): 70%; target mRNA inhibition (1.25 µM): 85%
GATGCTCCATAATAAT (sugars kkdddddddddkekek, PS)	17	–
GATGGTAAGTCAAATA (sugars k3 d10 k3, PS)	85	target mRNA inhibition (0.02 µM): 22%; target mRNA inhibition (0.078 µM): 34%; target mRNA inhibition (0.313 µM): 47%; target mRNA inhibition (1.25 µM): 74%; target mRNA inhibition (5 µM): 90%
GATGTAGTGGGAGTCG (sugars k3 d9 k3 e1, PS)	42	–
GATGTATACATTACCT (sugars k3 d10 k3, PS)	67	–
GATGTTAGGACCCAGT (sugars k3 d10 k3, PS)	64	–
GATGTTCATGGCTTTG (sugars k3 d10 k3, PS)	81	target mRNA inhibition (0.02 µM): 0%; target mRNA inhibition (0.078 µM): 5%; target mRNA inhibition (0.313 µM): 75%; target mRNA inhibition (1.25 µM): 68%
GATGUAGTGGGAGTCG (sugars k3 d1 m1 d8 k3, PS)	35	–
GATTAAGCAGAATTGT (sugars k3 d1 m1 d8 k3, PS)	28	–
GATTAAGCAGAATTGT (sugars k3 d10 k3, PS)	37	–
GATTAAGGCAAAGATC (sugars k3 d10 k3, PS)	25	–
GATTAATCATGGGACA (sugars k3 d10 k3, PS)	9	–
GATTAATCTTGATGCT (sugars k3 d10 k3, PS)	26	–
GATTAGTCTTGATGTA (sugars k3 d10 k3, PS)	65	–
GATTCGAAACTATTCA (sugars k3 d10 k3, PS)	57	–
GATTGCACAAACCACA (sugars k3 d10 k3, PS)	73	–
GATTGGAATGCTACTT (sugars kkdddddddddkekek, PS)	53	–
GATTTGAAGGTTAGAT (sugars k3 d10 k3, PS)	47	–
GATTTTTGGTGAACCC (sugars k3 d10 k3, PS)	30	–
GCAAATGTAAGAAGCC (sugars k3 d10 k3, PS)	4	–
GCAAGCCAACAGAGAG (sugars k3 d9 k3 e1, PS)	38	–
GCAAGCCAACAGAGAG (sugars k3 d10 k3, PS)	52	–

Sequence	target mRNA inhibition (1 µM) [%]	also measured
GCACAAGCACACTGTA (sugars k3 d10 k3, PS)	7	–
GCACCCCATGGATCTA (sugars k3 d10 k3, PS)	35	–
GCACCGTTTTGGGCTA (sugars k3 d9 k3 e1, PS)	45	–
GCACCGTTTTGGGCTA (sugars k3 d10 k3, PS)	74	target mRNA inhibition (0.02 µM): 36%; target mRNA inhibition (0.078 µM): 38%; target mRNA inhibition (0.313 µM): 61%; target mRNA inhibition (1.25 µM): 80%; target mRNA inhibition (5 µM): 88%
GCACCGTTTTGGGCTA (sugars kkdddddddddkekek, PS)	49	–
GCACTCAGCTGCAGTT (sugars k3 d10 k3, PS)	29	–
GCAGAAATTCACCTTG (sugars k3 d10 k3, PS)	74	target mRNA inhibition (0.02 µM): 5%; target mRNA inhibition (0.078 µM): 19%; target mRNA inhibition (0.313 µM): 26%; target mRNA inhibition (1.25 µM): 70%; target mRNA inhibition (5 µM): 88%
GCAGTTATTAGAAGTC (sugars k3 d9 k3 e1, PS)	67	–
GCAGTTATTAGAAGTC (sugars k3 d10 k3, PS)	76	target mRNA inhibition (0.02 µM): 9%; target mRNA inhibition (0.078 µM): 22%; target mRNA inhibition (0.313 µM): 41%; target mRNA inhibition (1.25 µM): 74%; target mRNA inhibition (5 µM): 84%
GCATACTTATTAAGTA (sugars k3 d10 k3, PS)	32	–
GCATCAAGACATTCTA (sugars kkdddddddddkekek, PS)	43	–
GCATUAATGCCACCCT (sugars k3 d1 m1 d8 k3, PS)	32	–
GCCAAACTGCTACTGT (sugars k3 d10 k3, PS)	73	target mRNA inhibition (0.02 µM): 1%; target mRNA inhibition (0.078 µM): 13%; target mRNA inhibition (0.313 µM): 41%; target mRNA inhibition (1.25 µM): 63%; target mRNA inhibition (5 µM): 76%
GCCAAGCTTTGTGTCA (sugars k3 d10 k3, PS)	64	–
GCCAATTCACATATGT (sugars k3 d10 k3, PS)	34	–
GCCTAGTTTTCGGCAC (sugars k3 d10 k3, PS)	12	–
GCCTTGAATAGCAAGC (sugars k3 d9 k3 e1, PS)	38	–
GCCTTGAATAGCAAGC (sugars k3 d10 k3, PS)	32	–
GCCTUGAATAGCAAGC (sugars k3 d1 m1 d8 k3, PS)	12	–
GCGGCAAATTTGCTGG (sugars k3 d10 k3, PS)	0	–
GCTACTTGAACAGTCT (sugars kkdddddddddkekek, PS)	64	–
GCTAGACAATTGCAAA (sugars k3 d10 k3, PS)	77	–

Sequence	target mRNA inhibition (1 µM) [%]	also measured
GCTAGTAATTGCATCT (sugars k3 d10 k3, PS)	47	–
GCTAGTGCCAAACCAA (sugars k3 d9 k3 e1, PS)	70	–
GCTATAACTGGAAGGA (sugars k3 d10 k3, PS)	58	–
GCTCCATAATAATAGC (sugars k3 d1 m1 d8 k3, PS)	16	–
GCTCTAATGTTTCTTG (sugars k3 d10 k3, PS)	62	–
GCTCTATTGGGCCAGG (sugars k3 d10 k3, PS)	47	–
GCTGAGTGGATTACAT (sugars k3 d10 k3, PS)	44	–
GCTGCTAGTGCCAAAC (sugars k3 d9 k3 e1, PS)	62	–
GCTGGAACAATATGGG (sugars k3 d10 k3, PS)	36	–
GCTGTAAGAGTCAGTA (sugars k3 d9 k3 e1, PS)	52	–
GCTGTAAGAGTCAGTA (sugars kkdddddddddkekek, PS)	42	–
GCTTAGTTCTTAATTA (sugars k3 d10 k3, PS)	28	–
GCTTTGAAGACAATAC (sugars k3 d10 k3, PS)	42	–
GCTTUTGTCCACCTTT (sugars k3 d1 m1 d8 k3, PS)	75	target mRNA inhibition (0.02 µM): 0%; target mRNA inhibition (0.078 µM): 0%; target mRNA inhibition (0.313 µM): 13%; target mRNA inhibition (1.25 µM): 70%; target mRNA inhibition (5 µM): 89%
GGAAAGGATATTTGGC (sugars k3 d10 k3, PS)	58	–
GGAAATTCACAATCTA (sugars k3 d10 k3, PS)	22	–
GGAATGCTACTTGAAC (sugars kkdddddddddkekek, PS)	49	–
GGACCAATATAATCCA (sugars k3 d10 k3, PS)	20	–
GGACCAGGGAATTTAT (sugars k3 d10 k3, PS)	55	–
GGACTTCAGAGTTATA (sugars k3 d10 k3, PS)	36	–
GGAGCTAGATACTCAA (sugars k3 d10 k3, PS)	42	–
GGAGGAGGTACTGTCT (sugars k3 d10 k3, PS)	44	–

— the OligoGym collection
